Measurements as given in PubChem BioAssay (NCI).
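Briefly, cells in 96-well plates were exposed to five compound concentrations for 48 h, and endpoints were estimated by linear interpolation. Definition used: TGI = concentration required for complete inhibition of growth.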

Experiments:
Assay in all cases: NCI tumour cell line growth inhibition, 48 h
PC-3 prostate = tested on: PC-3 prostate
U251 CNS = tested on: U251 CNS
LOX IMVI melanoma = tested on: LOX IMVI melanoma
MDA-N = tested on: MDA-N
OVCAR-5 ovarian = tested on: OVCAR-5 ovarian
NCI/ADR-RES ovarian = tested on: NCI/ADR-RES ovarian
M14 melanoma = tested on: M14 melanoma
EKVX NSCLC = tested on: EKVX NSCLC

Row | Structure (SMILES) | TGI (PC-3 prostate) | TGI (U251 CNS) | TGI (LOX IMVI melanoma) | TGI (MDA-N) | TGI (OVCAR-5 ovarian) | TGI (NCI/ADR-RES ovarian) | TGI (M14 melanoma) | TGI (EKVX NSCLC)
1 | COc1cc(-c2ccccc2)cn2c1nc1ccccc12 | 50.8 µM | 52.2 µM | 52.4 µM | 37.3 µM | 31.7 µM | 66.7 µM | 43.4 µM | 
2 | CCOC(=O)c1nc2cc(F)cc(F)c2[nH]c1=O | > 100 µM | > 100 µM | > 100 µM | > 100 µM | > 100 µM | > 100 µM | > 100 µM | 
3 | O=Cc1ccc(-c2ccc(S(=O)(=O)O)cc2)o1 | > 100 µM | > 100 µM | > 100 µM | > 100 µM | > 100 µM | > 100 µM | > 100 µM | > 100 µM
4 | COC(=O)C1=COC2OC3CC1C2C(C)O3 (stereo not drawn) | > 100 µM | > 100 µM | > 100 µM | > 100 µM | > 100 µM | > 100 µM | > 100 µM | > 100 µM
5 | O=c1[nH]c(=O)n(C2CC(O)C(COP(=O)(OCC(Cl)(Cl)Cl)OCC(Cl)(Cl)Cl)O2)cc1F (stereo not drawn) | > 100 µM | > 100 µM | > 100 µM | > 100 µM | > 100 µM | > 100 µM | > 100 µM | > 100 µM
6 | Oc1ccc(/C=N/c2nccs2)c(O)c1 | > 100 µM |  | > 100 µM | > 100 µM | > 100 µM | > 100 µM | > 100 µM | > 100 µM
7 | O=C1c2c(O)cccc2Cc2cc(CO)cc(O)c21 | 4.28 µM | 10.7 µM |  | 11.5 µM | 15.2 µM | 15.1 µM | 10.9 µM | 9.62 µM
8 | C=CCN1C(=O)CS/C1=N\NC(=O)CSc1nc2ccccc2c(=O)n1CC | > 100 µM | > 100 µM | > 100 µM | > 100 µM | > 100 µM | > 100 µM | > 100 µM | > 100 µM
9 | CCOC(=O)c1ccc(N(CCOS(=O)(=O)c2ccc(C)cc2)CCOS(=O)(=O)c2ccc(C)cc2)cc1 | 75 µM | 46.6 µM | > 100 µM | > 100 µM | > 100 µM | > 100 µM | > 100 µM | > 100 µM
10 | COc1ccc(C2=NN(C(=O)c3ccc(Cl)cc3)C(O)(c3cc(F)c(Cl)cc3Cl)C2)cc1 (stereo not drawn) | > 100 µM | > 100 µM | > 100 µM | > 100 µM | > 100 µM | > 100 µM | > 100 µM | > 100 µM
11 | COC1OC(Cn2cc([N+](=O)[O-])nc2C)C(O)C(O)C1O (stereo not drawn) | > 100 µM | > 100 µM |  | > 100 µM | > 100 µM | > 100 µM | > 100 µM | > 100 µM
12 | c1ccc(COC[C@H]2C3OCC([C@H](OCc4ccccc4)[C@H]3OCc3ccccc3)N2Cc2ccccc2)cc1 (stereo partly drawn) | > 100 µM | > 100 µM | > 100 µM | > 100 µM | > 100 µM | > 100 µM | > 100 µM | > 100 µM
13 | CCOC(=O)CCc1ccc(NC(=O)/C=C/c2ccc([N+](=O)[O-])o2)cc1 | > 29.9 µM | 6.42 µM | 1.54 µM | 2.95 µM | 6.4 µM | 5.37 µM | 2.43 µM | > 100 µM
14 | COc1cccc(CCn2c(N)c(C#N)c3ccc([N+](=O)[O-])cc3c2=O)c1 | > 46.4 µM | > 100 µM | > 46.4 µM | > 100 µM | > 31.6 µM | > 46.4 µM | > 31.6 µM | > 31.6 µM
15 | CCN1C/C(=C\c2ccc(Cl)cc2)c2[nH]c(=O)c(C#N)c(-c3ccc(Cl)cc3)c2C1 | > 100 µM | > 100 µM | > 100 µM | > 100 µM | > 100 µM | > 100 µM | > 100 µM | > 100 µM
16 | Cc1ccc(CN2CCN(Cc3ccc(C)o3)C(C)C2)o1 (stereo not drawn) | > 100 µM | > 100 µM | > 100 µM | > 100 µM | > 100 µM | > 100 µM | > 100 µM | > 100 µM
17 | NC(=O)NC(=O)c1cccc(NC(=O)CCl)c1 | 11.6 µM | 2.41 µM | 2.17 µM | 1.08 µM | 9.49 µM | 12 µM |  | 26.5 µM
18 | C[C@H]1S[C@H](c2c(F)cccc2F)n2c1nc1ccccc12 | > 100 µM | > 100 µM |  | > 100 µM | > 100 µM | > 100 µM | > 100 µM | > 100 µM
19 | COC1C(=O)N(SC)C1c1ccccc1Cl (stereo not drawn) | > 100 µM | > 100 µM | > 100 µM | > 100 µM | 32.2 µM | > 100 µM | 94.2 µM | 64.6 µM
20 | S=C1Cc2c(-c3ccccc3)cc(-c3ccc(Cl)cc3)nc2-c2ccccc2N1 | 30.9 µM | 2.34 µM | > 46.8 µM | 16.2 µM | 51.4 µM | > 27.3 µM | > 38.5 µM | > 27.1 µM
21 | CCOC(=O)C1=NNC(C(=O)c2ccccc2)C1c1ccccc1 (stereo not drawn) | 22.5 µM | 8.48 µM | 10.6 µM | 3.98 µM | 17.4 µM | 12.3 µM | 3.75 µM | 36.6 µM
22 | CC12CCC(=O)[C@@]1(C)CCCC2O (stereo partly drawn) | > 100 µM | > 100 µM | > 100 µM | > 100 µM | > 100 µM | > 100 µM | > 100 µM | > 100 µM
23 | COc1cc(OC)nc(-n2c(N)c(C(=O)O)c3ccc([N+](=O)[O-])cc3c2=O)n1 | > 100 µM | > 100 µM | > 100 µM | > 100 µM | > 100 µM | > 100 µM | > 100 µM | > 100 µM
24 | Nn1c(CCCCCCCCc2n[nH]c(=S)n2N)n[nH]c1=S | > 100 µM | > 100 µM |  | > 100 µM | > 100 µM | > 100 µM | > 100 µM | > 100 µM
25 | COc1ccc(NC(=O)NNS(=O)(=O)c2ccc(C)cc2)cc1 | > 100 µM | > 100 µM |  | > 100 µM | > 100 µM | > 100 µM | > 100 µM | > 100 µM
26 | Cc1ccc(O)c(C(c2cc(C)ccc2O)c2cc([N+](=O)[O-])ccc2O)c1 | 21.3 µM | 46.4 µM | > 100 µM |  | 28.8 µM | 66.8 µM | 24.5 µM | 32.3 µM
